The record followed here is patent US12552732B2, “Cyclopropanated sandalwood type compounds” (Symrise AG, priority 2020, dated 2026).

The nature of data set [1]: Odour detection threshold (ODT), olfactometer TO8, expert panel, DIN EN 13725. The following applies: for ODT (odour detection threshold): olfactometer TO8, panel of at least four experts. The source says:
The odour detection threshold is defined as the lowest concentration of a certain odorous compound (gaseous and sensorially active substance) which is perceivable and thus which can be distinguished with certainty from a blank reference under standard conditions. Generally, lower ODT values are preferred as a lower amount of the corresponding fragrance compound is required in order to a achieve an intense odour impressions and thus overall lower amounts can be used for perfuming. However, as the threshold depends on various factors such as concentration, solubility, partition coefficient between air and the olfactory active substance, vapor pressure and the like, predictions referring to the ODT of a substance, i.e. a fragrance material are difficult to make. The ODT was measured using an olfactometer TO8 and a panel of at least four experts according to DIN standard EN 13725.

Data set [2] can be described thus: Chemical stability in citric acid-based cleaner pH 2 (SPME GC-MS). The format is physicochemical. The following applies: for acid-stability compared with Javanol: 0.3% in citric acid-based cleaner pH 2, 14 days, 6, 22, 40 and 50 °C, versus fresh sample. On the procedure: In order to analyse the stability of the inventive compounds, different samples each containing 0.3% of either compound 3a, compound 3b or Javanol® (Givaudan), respectively, in a citric acid-based cleaner having a pH of 2 were analysed, i.e., the stability test was carried out using a representative acidic cleaner (pH=2) in which the corresponding fragrance compounds were incorporated in an amount of 0.3% relative to the acidic cleaner.
The stability was analysed via solid-phase microextraction (SPME) and coupled gas chromatography-mass spectrometry (GC-MS) by using a combination of polydimethylsiloxane and divinylbenzene as SPME fibre coating (PDMS/DVB fibre) and a polydimethylsiloxane-based DB-1 column for gas chromatography (100% polydimethylsiloxane) for each sample containing one of the fragrance compounds as indicated above. The stability was tested for various samples after 14 days of acidic treatment at different storage temperatures (6° C., 22° C., 40° C. and 50° C.) in comparison to a freshly prepared sample as reference (see FIGURE).

With `CCC(CO)C1CC1C1CC2CC2(C)C1(C)C` (stereo not shown) [Compound 3a, 2-[2-(1,2,2-trimethyl-3-bicyclo[3.1.0]hexanyl)cyclopropyl]butan-1-ol], in data set [1], the “ODT (odour detection threshold)” value is 0.000244 ppm (v/v). Further, the “acid-stability compared with Javanol” value in data set [2] was “better acid-stability over the whole temperature range”. Also, the “acid-stability at 22 °C” value in data set [2] (0.3% in citric acid-based cleaner pH 2, 14 days, 22 °C) was “Best stabilities”.
Take `CC(CO)C1CC1C1CC2CC2(C)C1(C)C` (stereo not shown) [Compound 3b, 2-[2-(1,2,2-trimethyl-3-bicyclo[3.1.0]hexanyl)cyclo-propyl]propan-1-ol]: in data set [1] (ODT compared with Javanol (Givaudan)), the “factor by which threshold value is lower than Javanol” value was “about 6.5”. The “ODT (odour detection threshold)” value in data set [1] is reported as 0.0000165 ppm (v/v). In addition, the “acid-stability compared with Javanol” value in data set [2] is on record as “better acid-stability over the whole temperature range”.
As for `CC1(CO)CC1CC1CC2CC2(C)C1(C)C` (stereo not shown) [Javanol®, [1-methyl-2-[(1,2,2-trimethyl-3-bicyclo[3.1.0]hexanyl)methyl]cyclo-propyl]methanol, reference compound], the “ODT (odour detection threshold)” value in data set [1] is recorded as 0.000104 ppm (v/v). In addition, the “decomposition at 50 °C” value in data set [2] (0.3% in citric acid-based cleaner pH 2, 14 days, 50 °C) is “fully decomposes”. For the same compound, in data set [2] (0.3% in citric acid-based cleaner pH 2, 14 days, moderate temperatures), the “decomposition at moderate temperatures” value was “seems to decompose quickly even at moderate temperatures”. Besides, the “chemical stability under acidic conditions” value in data set [2] (acidic conditions, general statement) is “not chemically stable under acidic conditions”.
